In patent US9040717B2, “Pyrazole-amide compounds and pharmaceutical use thereof” (JAPAN TOBACCO INC., priority 2013, dated 2015):

Tests used:
[1] = Metabolic stability test in human liver microsome; format: in vitro ADME; conditions: 5 μM, 37° C.
Method: Human liver microsome (manufactured by Xenotech, H0620, final concentration (after dilution), 0.2 mg protein/mL) was suspended in 100 mM potassium phosphate buffer (pH 7.4, containing β-nicotinamide adenine dinucleotide phosphate: 1.3 mM, D-glucose-6-phosphate: 3.3 mM, magnesium chloride: 3.3 mM, glucose-6-phosphate dehydrogenase: 0.45 U/mL), and further mixed with a test compound dissolved in MeCN/DMSO (95/5) (final concentration 5 μM). The mixture was incubated at 37° C. for 10 min and 60 min, acetonitrile containing formic acid (final concentration 0.1%) was added, and the mixture was centrifuged. The test compound (unmodified) in the supernatant was measured by high performance liquid chromatography/mass spectrometry (LC/MS) (manufactured by Waters, LC: Acquity UPLC, MS:SQ Detector or TQ Detector). The residual ratio (%) was calculated from the obtained measurement value.

liver PDH activity = experiment: Ex vivo PDH activation assay, liver; format: in vivo, Sprague-Dawley rats
Method: The action of test compound on tissue PDH activity was evaluated. NADH production was detected via p-iodonitrotetrazolium violet (INT)-coupled system to measure PDH activity.
Normal male Sprague-Dawley rats were randomly allocated to the vehicle group and the test compound groups. The vehicle (0.5% aqueous methylcellulose solution, 5 mL/kg) or the test compound was orally administered to the rats. At 5 or 20 hr after administration, the rats were anesthetized with an intraperitoneal injection of sodium pentobarbital (60 mg/kg), and liver slices and epididymal adipose tissues were collected.
To the liver slices were rapidly added 9 volumes of ice-cold homogenization buffer (0.25 mol/L sucrose, 5 mmol/L tris(hydroxymethyl)aminomethane hydrochloride (pH 7.5), 2 mmol/L EDTA), and the mixtures were homogenized using a Polytron homogenizer. The homogenates were centrifuged at 600×g, 4° C. for 10 min to obtain the supernatant. The supernatants (1 mL) were centrifuged at 16,000×g, 4° C. for 10 min to collect the precipitates. The precipitates were washed by resuspension in the homogenization buffer (1 mL) and centrifuged in the same manner. The precipitates were frozen with liquid nitrogen and stored at −80° C. as the liver mitochondrial fraction.
The mitochondrial fractions were thawed and suspended with the sample buffer (0.25 mol/L sucrose, 20 mmol/L tris(hydroxymethyl)aminomethane hydrochloride (pH 7.5), 50 mmol/L potassium chloride, and 1 mL/L 4-(1,1,3,3-tetramethylbutyl)phenyl-polyethylene glycol (Triton X-100)). Active PDH activity (PDHa activity) and total PDH activity (PDHt activity) were measured to evaluate the PDH activity. For the measurement of the PDHt activity, equal amounts of the mitochondrial suspension and the activation buffer (0.25 mol/L sucrose, 20 mmol/L tris(hydroxymethyl)aminomethane hydrochloride (pH 7.5), 50 mmol/L potassium chloride, 1 mL/L Triton X-100, 4 mmol/L calcium chloride, 40 mmol/L magnesium chloride, 10 mmol/L sodium dichloroacetate) were mixed, and the mixtures were incubated at 37° C. for 10 min. Forty microliters of the mitochondrial suspensions diluted with a sample buffer were added to a 96-well microplate for activity measurement and blank measurement. Then 180 μL of the reaction mixture (0.056 mmol/L potassium phosphate buffer (pH 7.5), 5.6 mmol/L DL-carnitine, 2.8 mmol/L NAD, 0.22 mmol/L thiamin pyrophosphate, 0.11 mmol/L Coenzyme A, 1.1 mL/L Triton X-100, 1.1 mmol/L magnesium chloride, 1.1 g/L bovine serum albumin, 0.67 mmol/L INT, 7.2 μmol/L phenazine methosulfate, 28 mmol/L sodium oxamate) was added to each well, and then 20 μL of 50 mmol/L sodium pyruvate for activity measurement or water for blank measurement were added. The mixtures were incubated at room temperature under shading. The absorbances at 500-750 nm, which were attributable to reduction of INT, the final electron acceptor, were measured using a microplate reader over time and the changes in the absorbance were calculated. The PDH activity was calculated by subtraction of the change in absorbance of the blank well from that of the activity measurement well. The percentage of the PDHa activity to the PDHt activity was calculated and taken as an index of the PDH activation.

[2] = Metabolic stability test in rat liver microsome; format: in vitro ADME
[3] = Table 2, 5 hr after oral 3 mg/kg, non-fasting SD rats, vehicle 13 ± 3, mean ± S.D. (n = 3)
[4] = Table 2, 20 hr after oral 3 mg/kg, non-fasting SD rats, vehicle 13 ± 3, mean ± S.D. (n = 3)

Structure (SMILES) | Stability in liver microsome (residual ratio %) ([1]; 10 min) [%] | Stability in liver microsome (residual ratio %) ([1]; 60 min) [%] | PDHa activity (% of PDHt activity) (liver PDH activity; [3]) | PDHa activity (% of PDHt activity) (liver PDH activity; [4]) | Stability in liver microsome (residual ratio %) ([2]; 10 min) [%] | Stability in liver microsome (residual ratio %) ([2]; 60 min) [%] | PDHa activity (% of PDHt activity) (liver PDH activity; Table 3, 5 hr after oral 3 mg/kg, SD rats, vehicle 28 ± 6, mean ± S.D. (n = 3)) | PDHa activity (% of PDHt activity) (liver PDH activity; Table 3, 20 hr after oral 3 mg/kg, SD rats, vehicle 28 ± 6, mean ± S.D. (n = 3))
Cn1cc(-c2cc(OCC(C)(C)O)cc3c2-c2ccccc2[C@]3(O)C(F)(F)F)cn1 [Compound (B), (9R)-2-(2-Hydroxy-2-methylpropoxy)-4-(1-methyl-1H-pyrazol-4-yl)-9-(trifluoromethyl)-9H-fluoren-9-ol] | 98.0 | 88.2 | 43 ± 7 % of PDHt activity | 10 ± 3 % of PDHt activity | 101.1 | 92.1 | – | –
NC(=O)Cn1cc(-c2cc(OCCC34CC5CC(CC(O)(C5)C3)C4)cc3c2-c2ccccc2[C@]3(O)C(F)(F)F)cn1 [Compound (A), 2-(4-{(9R)-9-Hydroxy-2-[2-(3-hydroxyadamantan-1-yl)ethoxy]-9-(trifluoromethyl)-9H-fluoren-4-yl}-1H-pyrazol-1-yl)acetamide] | 34.8 | 0.0 | 35 ± 6 % of PDHt activity | 16 ± 10 % of PDHt activity | 24.8 | 0.0 | – | –
CC(C)(O)CCOc1cc(-c2cnn(C(C)(C)C(N)=O)c2)c2c(c1)[C@@](O)(C(F)(F)F)c1ccccc1-2 [Compound (2), 2-{4-[(9R)-9-hydroxy-2-(3-hydroxy-3-methylbutyloxy)-9-(trifluoromethyl)-9H-fluoren-4-yl]-1H-pyrazol-1-yl}-2-methylpropanamide] | 98.8 | 96.5 | – | – | 98.8 | 100.0 | 74 ± 12 % of PDHt activity | 50 ± 16 % of PDHt activity
CC(C)(O)CCCOc1cc(-c2cnn(C(C)(C)C(N)=O)c2)c2c(c1)[C@@](O)(C(F)(F)F)c1ccccc1-2 [Compound (3), 2-{4-[(9R)-9-hydroxy-2-(4-hydroxy-4-methylpentyloxy)-9-(trifluoromethyl)-9H-fluoren-4-yl]-1H-pyrazol-1-yl}-2-methylpropanamide] | 98.4 | 85.9 | 56 ± 8 % of PDHt activity | 32 ± 9 % of PDHt activity | 102.7 | 95.8 | – | –
